Measurements from US10023565B2, “N,N′ substituted piperidinamine compounds, and preparation method and usage thereof” (Institute of Pharmacology and Toxicology Academy of …, priority 2013, dated 2018).

Tests used:
Huh-7 = assay: Extended test against tumor cell lines (ATPlite); format: cell-based; conditions: Huh-7 (liver cancer), 72 hours
How it was run: (§1)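 5000 cells/well, 24 h attach, 37 °C. Cpd 4, 1, 0.25, 0.063, 0.016 μM final, n=3, 72 h. ATPlite lum; % survival vs medium control RLU.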

HT-29 = assay: Extended test against tumor cell lines (ATPlite); format: cell-based; conditions: HT-29 (colorectal cancer), 72 hours
How it was run: as §1

A549 = assay: Extended test against tumor cell lines (ATPlite); format: cell-based; conditions: A549 (lung cancer), 72 hours
How it was run: as §1

[1] = tested on: MRC5 (lung epithelial fibroblast); assay: Extended test against tumor cell lines (ATPlite); format: cell-based; conditions: MRC5 (normal cells), 72 hours
How it was run: as §1

AsPC-1 = assay: Extended test against tumor cell lines (ATPlite); format: cell-based; conditions: AsPC-1 (pancreatic cancer), 72 hours
How it was run: as §1

H460 = assay: Extended test against tumor cell lines (ATPlite); format: cell-based; conditions: H460 (lung cancer), 72 hours
How it was run: as §1

BGC823 = assay: Extended test against tumor cell lines (ATPlite); format: cell-based; conditions: BGC823 (gastric cancer), 72 hours
How it was run: as §1

[2] = tested on: WI-38 (human embryonic lung fibroblast); assay: Extended test against tumor cell lines (ATPlite); format: cell-based; conditions: WI-38 (normal cells), 72 hours
How it was run: as §1

MIA-PaCa-2 = assay: Extended test against tumor cell lines (ATPlite); format: cell-based; conditions: MIA-PaCa-2 (pancreatic cancer), 72 hours
How it was run: as §1

COLO205 = assay: Extended test against tumor cell lines (ATPlite); format: cell-based; conditions: COLO205 (colorectal cancer), 72 hours
How it was run: as §1

HepG2 = assay: Extended test against tumor cell lines (ATPlite); format: cell-based; conditions: HepG2 (liver cancer), 72 hours
How it was run: as §1

N87 = assay: Extended test against tumor cell lines (ATPlite); format: cell-based; conditions: N87 (gastric cancer), 72 hours
How it was run: as §1

BT/Lap^R1.0 = assay: Antitumor bioactivity evaluation, breast cancer cells (ATPlite); format: cell-based, human; conditions: Homo sapiens; for inhibition at 5 µM: test sample 5 μM, 72 hours, read-out: Inhibitory Rate % BT/Lap^R1.0
How it was run: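 5000 cells/well, 24 h adhesion; cpd 5 μM final ± lapatinib 1 μM final; 72 h, 37 °C; ATPlite luminescence; survival % = sample RLU/control RLU ×100; 5 replicate wells.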

For `CSc1nccc(N2CCC(N(C)Cc3ccccc3Cl)CC2)n1` [Example 47, N-methyl-N-(2-chlorobenzyl)-N-[1-(2-methylthiopyrimidin-4-yl)piperidin-4-yl]amine], the Survival rate (Huh-7; 0.016 μM) was 91.1%, the Survival rate (Huh-7; 0.063 μM) was 88.3% and the Survival rate (Huh-7; 0.25 μM) was 81.4%. For the same compound, the Survival rate (Huh-7; 1 μM) was 65.9%, the Survival rate (Huh-7; 4 μM) was 16.7% and the Survival rate (HT-29; 0.016 μM) was 102.8%. The Survival rate (HT-29; 0.063 μM) was 102.1%, the Survival rate (HT-29; 0.25 μM) was 101.6% and the Survival rate (HT-29; 1 μM) was 93.1%. The Survival rate (HT-29; 4 μM) was 48.8%, the Survival rate (A549; 0.016 μM) was 98.1% and the Survival rate (A549; 0.063 μM) was 95.3%. It also gave a Survival rate (A549; 0.25 μM) of 93%, a Survival rate (A549; 1 μM) of 88.7% and a Survival rate (A549; 4 μM) of 45.9%. The Survival rate ([1]; 0.016 μM) was 97.3%, the Survival rate ([1]; 0.063 μM) was 99.5% and the Survival rate ([1]; 0.25 μM) was 100.3%. For the same compound, the Survival rate ([1]; 1 μM) was 92.6%, the Survival rate ([1]; 4 μM) was 74.8% and the Survival rate (AsPC-1; 0.016 μM) was 100.2%. It also gave a Survival rate (AsPC-1; 0.063 μM) of 94.7%, a Survival rate (AsPC-1; 0.25 μM) of 92.8% and a Survival rate (AsPC-1; 1 μM) of 85.3%. For the same compound, the Survival rate (AsPC-1; 4 μM) was 53.6%, the Survival rate (H460; 0.016 μM) was 99% and the Survival rate (H460; 0.063 μM) was 99.8%. For the same compound, the Survival rate (H460; 0.25 μM) was 99.3%, the Survival rate (H460; 1 μM) was 90.6% and the Survival rate (H460; 4 μM) was 33.8%. It also gave a Survival rate (BGC823; 0.016 μM) of 99.8%, a Survival rate (BGC823; 0.063 μM) of 100.6% and a Survival rate (BGC823; 0.25 μM) of 98.4%. The Survival rate (BGC823; 1 μM) was 84.3%, the Survival rate (BGC823; 4 μM) was 24.5% and the Survival rate ([2]; 0.016 μM) was 102.1%. It also gave a Survival rate ([2]; 0.063 μM) of 99.7%, a Survival rate ([2]; 0.25 μM) of 100.4% and a Survival rate ([2]; 1 μM) of 95.1%. It also gave a Survival rate ([2]; 4 μM) of 82.1%, a Survival rate (MIA-PaCa-2; 0.016 μM) of 98.5% and a Survival rate (MIA-PaCa-2; 0.063 μM) of 99.3%. The Survival rate (MIA-PaCa-2; 0.25 μM) was 97.4%, the Survival rate (MIA-PaCa-2; 1 μM) was 88.5% and the Survival rate (MIA-PaCa-2; 4 μM) was 24.5%. The Survival rate (COLO205; 0.016 μM) was 98.2%, the Survival rate (COLO205; 0.063 μM) was 96.7% and the Survival rate (COLO205; 0.25 μM) was 97.9%. For the same compound, the Survival rate (COLO205; 1 μM) was 96.1%, the Survival rate (COLO205; 4 μM) was 23.3% and the Survival rate (HepG2; 0.016 μM) was 103.1%. For the same compound, the Survival rate (HepG2; 0.063 μM) was 102.7%, the Survival rate (HepG2; 0.25 μM) was 96% and the Survival rate (HepG2; 1 μM) was 71.4%. It also gave a Survival rate (HepG2; 4 μM) of 7.3%, a Survival rate (N87; 0.016 μM) of 89.6% and a Survival rate (N87; 0.063 μM) of 91.3%. The Survival rate (N87; 0.25 μM) was 87.8%, the Survival rate (N87; 1 μM) was 68.6% and the Survival rate (N87; 4 μM) was 34.8%. The IC50 (BT/Lap^R1.0) was 1700 nM and the inhibition at 5 µM (BT/Lap^R1.0) was 58.1%.
With `CSc1nccc(N2CCC(N(C)Cc3c(Cl)cccc3Cl)CC2)n1` [Example 49, N-methyl-N-(2,6-dichlorobenzyl)-N-[1-(2-methylthiopyrimidin-4-yl)piperidin-4-yl]amine] the Survival rate (Huh-7; 0.016 μM) was 91.3%, the Survival rate (Huh-7; 0.063 μM) was 82% and the Survival rate (Huh-7; 0.25 μM) was 70.5%. The Survival rate (Huh-7; 1 μM) was 19.4%, the Survival rate (Huh-7; 4 μM) was 12.8% and the Survival rate (HT-29; 0.016 μM) was 96.3%. For the same compound, the Survival rate (HT-29; 0.063 μM) was 91%, the Survival rate (HT-29; 0.25 μM) was 84.7% and the Survival rate (HT-29; 1 μM) was 63.9%. For the same compound, the Survival rate (HT-29; 4 μM) was 25.1%, the Survival rate (A549; 0.016 μM) was 99.9% and the Survival rate (A549; 0.063 μM) was 95.1%. It also gave a Survival rate (A549; 0.25 μM) of 95.2%, a Survival rate (A549; 1 μM) of 60.5% and a Survival rate (A549; 4 μM) of 40.1%. It also gave a Survival rate ([1]; 0.016 μM) of 100.6%, a Survival rate ([1]; 0.063 μM) of 100.1% and a Survival rate ([1]; 0.25 μM) of 94.8%. For the same compound, the Survival rate ([1]; 1 μM) was 80.8%, the Survival rate ([1]; 4 μM) was 41.1% and the Survival rate (AsPC-1; 0.016 μM) was 99.1%. For the same compound, the Survival rate (AsPC-1; 0.063 μM) was 97.5%, the Survival rate (AsPC-1; 0.25 μM) was 93.8% and the Survival rate (AsPC-1; 1 μM) was 64.4%. The Survival rate (AsPC-1; 4 μM) was 44.3%, the Survival rate (H460; 0.016 μM) was 98.4% and the Survival rate (H460; 0.063 μM) was 98.3%. The Survival rate (H460; 0.25 μM) was 94.2%, the Survival rate (H460; 1 μM) was 47.9% and the Survival rate (H460; 4 μM) was 19.3%. For the same compound, the Survival rate (BGC823; 0.016 μM) was 102.8%, the Survival rate (BGC823; 0.063 μM) was 102.4% and the Survival rate (BGC823; 0.25 μM) was 95.1%. The Survival rate (BGC823; 1 μM) was 44%, the Survival rate (BGC823; 4 μM) was 17.3% and the Survival rate ([2]; 0.016 μM) was 98.5%. The Survival rate ([2]; 0.063 μM) was 97.3%, the Survival rate ([2]; 0.25 μM) was 92.4% and the Survival rate ([2]; 1 μM) was 79.8%. The Survival rate ([2]; 4 μM) was 48.4%, the Survival rate (MIA-PaCa-2; 0.016 μM) was 97.6% and the Survival rate (MIA-PaCa-2; 0.063 μM) was 97.4%. The Survival rate (MIA-PaCa-2; 0.25 μM) was 92.8%, the Survival rate (MIA-PaCa-2; 1 μM) was 33.1% and the Survival rate (MIA-PaCa-2; 4 μM) was 22.9%. It also gave a Survival rate (COLO205; 0.016 μM) of 98.1%, a Survival rate (COLO205; 0.063 μM) of 94.2% and a Survival rate (COLO205; 0.25 μM) of 95.8%. It also gave a Survival rate (COLO205; 1 μM) of 83.9%, a Survival rate (COLO205; 4 μM) of 4.1% and a Survival rate (HepG2; 0.016 μM) of 101.8%. It also gave a Survival rate (HepG2; 0.063 μM) of 96.2%, a Survival rate (HepG2; 0.25 μM) of 82.1% and a Survival rate (HepG2; 1 μM) of 9.5%. The Survival rate (HepG2; 4 μM) was 2.4%, the Survival rate (N87; 0.016 μM) was 89.5% and the Survival rate (N87; 0.063 μM) was 74.1%. It also gave a Survival rate (N87; 0.25 μM) of 65.6%, a Survival rate (N87; 1 μM) of 42.8% and a Survival rate (N87; 4 μM) of 26%. The IC50 (BT/Lap^R1.0) was 700 nM and the inhibition at 5 µM (BT/Lap^R1.0) was 58.8%.
